Reference: patent US11363816B2, “4-amino-6-(heterocyclic)picolinates and 6-amino-2-(heterocyclic)pyramidine-4-carboxylates and their use as herbicides” (Dow AgroSciences LLC, priority 2017, dated 2022)

Legend:
Format in all cases: in vivo
[1] = tested on: PAPRH=Papaver rhoeas L. (common poppy); experiment: Postemergence field trial, Granon, Spain (Table 5)
Description: (§1) Field trials were established in Spain (Banares and Granon) and Germany (Bielefeld) to evaluate the efficacy of Compound 5, Compound 6, and Compound 7. Trials were designed as randomized complete blocks with three to four replicates. Trials were established in winter wheat with natural weed population with plot sizes of 2-2.5 meters (m) by 6-8 m (width×length). The crops were grown using normal cultural practices for fertilization, seeding, and maintenance to ensure good growth of the crop. All herbicide treatments were applied post-emergence with applications made to the crops at the BBCH 21 to 23 growth stage. Herbicides were applied with backpack or bicycle sprayers using air as a propellant. The sprayers utilized flat fan air-induction spray nozzles calibrated to deliver a uniform spray pattern that provided thorough coverage of the foliage using a 200 L/ha spray volume. All treatments were applied with methylated seed oil (MSO) at 1.25% v/v. Phytotoxicity to the weeds was assessed visually at several intervals after application as percent overall control, compared to an untreated control plot. In general, three to four replicates were assessed for each treatment. All treatment results are an average of three or four replicates. Compound 5, Compound 6, and Compound 7 were applied as emulsifiable concentrate (EC) formulations at 100 g ae/L EC, respectively.

[2] = tested on: VERHE=Veronica hederifolia (ivyleaved speedwell); experiment: Postemergence field trial, Granon, Spain (Table 5)
Description: as §1

[3] = tested on: FUMOF=Fumaria officinalis (common fumitory); experiment: Postemergence field trial, Banares, Spain
Description: as §1

[4] = tested on: PAPRH=Papaver rhoeas L. (common poppy); experiment: Postemergence field trial, Banares, Spain
Description: as §1

[5] = tested on: VERHE=Veronica hederifolia (ivyleaved speedwell); experiment: Postemergence field trial, Banares, Spain
Description: as §1

[6] = tested on: VERSS=Veronica spp (speedwell); experiment: Postemergent herbicidal activity in the greenhouse; settings: 21-28 DAAA
Description: (§2) Seeds of the desired test plant species were planted in Sun Gro MetroMix® 306 planting mixture, which typically has a pH of 6.0 to 6.8 and an organic matter content of about 30 percent, in plastic pots with a surface area of 103.2 square centimeters (cm^2). When required to ensure good germination and healthy plants, a fungicide treatment and/or other chemical or physical treatment was applied. The plants were grown for 7-36 days (d) in a greenhouse with an approximate 14 hour (h) photoperiod which was maintained at about 18° C. during the day and 17° C. during the night. Nutrients and water were added on a regular basis and supplemental lighting was provided with overhead metal halide 1000-Watt lamps as necessary. The plants were employed for testing when they reached the second or third true leaf stage.
(§3) An aliquot of formulated Compound 5 (100 grams acid equivalent per liter (g ae/L); emusifiable concentrate (EC)), Compound 6 (100 g ae/L; EC) or Compound 7 (100 g ae/L; EC) was placed in a 25 mL glass vial and diluted in a volume of 1.25% (volume per volume (v/v)) aqueous Actirob B esterified rapeseed oil to obtain a stock solution. The concentrated stock solutions were diluted with an aqueous mixture of 1.25% v/v of aqueous Actirob B esterified rapeseed oil to provide the appropriate application rates. Compound requirements are based upon a 12 mL application volume at a rate of 187 liters per hectare (L/ha). Formulated compounds were applied to the plant material with an overhead Mandel track sprayer equipped with 8002E nozzles calibrated to deliver 187 L/ha over an application area of 0.503 square meters (m^2) at a spray height of 18 inches ([…]) above average plant canopy. Control plants were sprayed in the same manner with the solvent blank.
(§4) The treated plants and control plants were placed in a greenhouse as described above and watered by subirrigation to prevent washoff of the test compounds. After 20-22 d, the condition of the test plants as compared with that of the control plants was determined visually and scored on a scale of 0 to 100 percent where 0 corresponds to no injury and 100 corresponds to complete kill. […]
(§5) The values reported are means.

[7] = tested on: CHEAL=Chenopodium album L. (common lambsquarters); experiment: Postemergent herbicidal activity in the greenhouse; settings: 21-28 DAAA
Description: as §2, §3, §4, §5

[8] = tested on: PAPRH=Papaver rhoeas L. (common poppy); experiment: Postemergent herbicidal activity in the greenhouse; settings: 21-28 DAAA
Description: as §2, §3, §4, §5

[9] = tested on: SINAR=Sinapis arvensis L. (wild mustard); experiment: Postemergent herbicidal activity in the greenhouse; settings: 21-28 DAAA
Description: as §2, §3, §4, §5

[10] = tested on: CHEAL=Chenopodium album L. (common lambsquarters); experiment: Postemergence field trial, Nisku, Alberta, Canada
Description: (§6) Field trials were established in Canada (in Ellerslie, Alberta; Nisku, Alberta and Hanley, Saskatchewan) to evaluate the efficacy of Compound 5, Compound 6, and Compound 7. Trials were designed as randomized complete blocks with four replicates. Trials were established in spring wheat with natural weed population with plot sizes of 2-3 meters (m) by 8-10 m (width×length). The crops were grown using normal cultural practices for fertilization, seeding, and maintenance to ensure good growth of the crop.
(§7) All herbicide treatments were applied post-emergence with applications made to the crops at BBCH (Phenological development stages of a plant) 14 to 22 growth stage. Herbicides were applied with backpack or bicycle sprayers using carbon dioxide (CO2) as a propellant. The sprayers utilized flat fan air-induction spray nozzles calibrated to deliver a uniform spray pattern that provided thorough coverage of the foliage using a 100 L/ha spray volume. All treatments were applied with methylated seed oil (MSO) at 1.25% v/v. Phytotoxicity to the weeds was assessed visually at several intervals after application as percent overall control, compared to an untreated control plot. In general, four replicates were assessed for each treatment. All treatment results are an average of four replicates.
(§8) Compound 5, Compound 6 and Compound 7 were applied as emulsifiable concentrate (EC) formulations at 100 g ae/L EC, respectively.

[11] = tested on: STEME=Stellaria media (L.) Vill. (common chickweed); experiment: Postemergence field trial, Nisku, Alberta, Canada
Description: as §6, §7, §8

SMILES	Percent (%) Visual Control PAPRH 84DAAA ([1]; 5 g ae/ha) [%]	Percent (%) Visual Control PAPRH 84DAAA ([1]; 10 g ae/ha) [%]	Percent (%) Visual Control PAPRH 84DAAA ([1]; 20 g ae/ha) [%]	Percent (%) Visual Control VERHE 34DAAA ([2]; 5 g ae/ha) [%]	Percent (%) Visual Control VERHE 34DAAA ([2]; 10 g ae/ha) [%]	Percent (%) Visual Control VERHE 34DAAA ([2]; 20 g ae/ha) [%]	Percent (%) Visual Control FUMOF 83DAAA ([3]; 5 g ae/ha) [%]	Percent (%) Visual Control FUMOF 83DAAA ([3]; 10 g ae/ha) [%]	Percent (%) Visual Control FUMOF 83DAAA ([3]; 20 g ae/ha) [%]	Percent (%) Visual Control PAPRH 66DAAA ([4]; 5 g ae/ha) [%]	Percent (%) Visual Control PAPRH 66DAAA ([4]; 10 g ae/ha) [%]	Percent (%) Visual Control PAPRH 66DAAA ([4]; 20 g ae/ha) [%]	Percent (%) Visual Control VERHE 66DAAA ([5]; 5 g ae/ha) [%]	Percent (%) Visual Control VERHE 66DAAA ([5]; 10 g ae/ha) [%]	Percent (%) Visual Control VERHE 66DAAA ([5]; 20 g ae/ha) [%]	Percent (%) Visual Control VERSS ([6]; 10 g ae/ha) [%]	Percent (%) Visual Control VERSS ([6]; 20 g ae/ha) [%]	Percent (%) Visual Control CHEAL ([7]; 10 g ae/ha) [%]	Percent (%) Visual Control CHEAL ([7]; 20 g ae/ha) [%]	Percent (%) Visual Control PAPRH ([8]; 10 g ae/ha) [%]	further results
C#CCOC(=O)c1nc(-c2ccc3cc[nH]c3c2F)c(F)c(N)c1Cl [Compound 5, prop-2-yn-1-yl 4-amino-3-chloro-5-fluoro-6-(7-fluoro-1H-indol-6-yl)picolinate]	66.7	78.3	90.7	60	77	85	41.7	65	93.3	57.7	70	90	60	77.7	91	77.5	80.8	97.5	100	95	Percent (%) Visual Control PAPRH ([8]; 20 g ae/ha): 100%; Percent (%) Visual Control SINAR ([9]; 10 g ae/ha): 89%; Percent (%) Visual Control SINAR ([9]; 20 g ae/ha): 96.7%; Percent (%) Visual Control CHEAL 51DAAA ([10]; 10 g ae/ha): 98%; Percent (%) Visual Control CHEAL 51DAAA ([10]; 20 g ae/ha): 96.8%; Percent (%) Visual Control CHEAL 51DAAA ([10]; 40 g ae/ha): 97.3%; Percent (%) Visual Control STEME 28DAAA ([11]; 10 g ae/ha): 88%; Percent (%) Visual Control STEME 51DAAA ([11]; 10 g ae/ha): 88.3%; Percent (%) Visual Control STEME 28DAAA ([11]; 20 g ae/ha): 96%; Percent (%) Visual Control STEME 51DAAA ([11]; 20 g ae/ha): 92.5%; Percent (%) Visual Control STEME 28DAAA ([11]; 40 g ae/ha): 99%; Percent (%) Visual Control STEME 51DAAA ([11]; 40 g ae/ha): 93.8%
N#CCOC(=O)c1nc(-c2ccc3cc[nH]c3c2F)c(F)c(N)c1Cl [Compound 6, cyanomethyl 4-amino-3-chloro-5-fluoro-6-(7-fluoro-1H-indol-6-yl)picolinate]	68.7	81	90	55	77.7	86	41.7	69.3	96	60	75	91	60	81.7	91	86.3	86.5	100	100	100	Percent (%) Visual Control PAPRH ([8]; 20 g ae/ha): 100%; Percent (%) Visual Control SINAR ([9]; 10 g ae/ha): 90%; Percent (%) Visual Control SINAR ([9]; 20 g ae/ha): 96%; Percent (%) Visual Control CHEAL 51DAAA ([10]; 10 g ae/ha): 98%; Percent (%) Visual Control CHEAL 51DAAA ([10]; 20 g ae/ha): 98%; Percent (%) Visual Control CHEAL 51DAAA ([10]; 40 g ae/ha): 98%; Percent (%) Visual Control STEME 28DAAA ([11]; 10 g ae/ha): 99%; Percent (%) Visual Control STEME 51DAAA ([11]; 10 g ae/ha): 87.5%; Percent (%) Visual Control STEME 28DAAA ([11]; 20 g ae/ha): 96%; Percent (%) Visual Control STEME 51DAAA ([11]; 20 g ae/ha): 87.8%; Percent (%) Visual Control STEME 28DAAA ([11]; 40 g ae/ha): 99%; Percent (%) Visual Control STEME 51DAAA ([11]; 40 g ae/ha): 94.5%
Nc1c(F)c(-c2ccc3cc[nH]c3c2F)nc(C(=O)OCc2ccccc2)c1Cl [Compound 7, benzyl 4-amino-3-chloro-5-fluoro-6-(7-fluoro-1H-indol-6-yl)picolinate, reference compound]	59.3	68.3	80.3	51.7	58.3	79.3	26.7	45	58.3	53.3	62.7	75	50	56	70	72.5	67.5	92.5	95	85	Percent (%) Visual Control PAPRH ([8]; 20 g ae/ha): 100%; Percent (%) Visual Control SINAR ([9]; 10 g ae/ha): 90%; Percent (%) Visual Control SINAR ([9]; 20 g ae/ha): 94%; Percent (%) Visual Control CHEAL 51DAAA ([10]; 10 g ae/ha): 98%; Percent (%) Visual Control CHEAL 51DAAA ([10]; 20 g ae/ha): 98%; Percent (%) Visual Control CHEAL 51DAAA ([10]; 40 g ae/ha): 98%; Percent (%) Visual Control STEME 28DAAA ([11]; 10 g ae/ha): 76.7%; Percent (%) Visual Control STEME 51DAAA ([11]; 10 g ae/ha): 76.3%; Percent (%) Visual Control STEME 28DAAA ([11]; 20 g ae/ha): 76.7%; Percent (%) Visual Control STEME 51DAAA ([11]; 20 g ae/ha): 80%; Percent (%) Visual Control STEME 28DAAA ([11]; 40 g ae/ha): 99%; Percent (%) Visual Control STEME 51DAAA ([11]; 40 g ae/ha): 85.8%
